Data published in patent publication US9533978B2 (AstraZeneca AB, priority 2009, dated 2017).

The molecules below were run against T1, Recombinant human TLR7 (Homo sapiens, UniProt Q9NYK1) (assay: Human TLR7 assay (HEK293 SEAP reporter)). Conditions: degree of TLR7 activation; SEAP induction in HEK293 cells stably expressing recombinant human TLR7 and pNiFty2-SEAP reporter, overnight incubation at 37° C., 0.1% (v/v) DMSO.
T1 construct: expressed in transfected cells; host or cells: HEK293 cell line stably expressing the pNiFty2-SEAP reporter plasmid; TLR7 in vector pUNO, blasticidin selection
T1 sequence (Q9NYK1 27-1049): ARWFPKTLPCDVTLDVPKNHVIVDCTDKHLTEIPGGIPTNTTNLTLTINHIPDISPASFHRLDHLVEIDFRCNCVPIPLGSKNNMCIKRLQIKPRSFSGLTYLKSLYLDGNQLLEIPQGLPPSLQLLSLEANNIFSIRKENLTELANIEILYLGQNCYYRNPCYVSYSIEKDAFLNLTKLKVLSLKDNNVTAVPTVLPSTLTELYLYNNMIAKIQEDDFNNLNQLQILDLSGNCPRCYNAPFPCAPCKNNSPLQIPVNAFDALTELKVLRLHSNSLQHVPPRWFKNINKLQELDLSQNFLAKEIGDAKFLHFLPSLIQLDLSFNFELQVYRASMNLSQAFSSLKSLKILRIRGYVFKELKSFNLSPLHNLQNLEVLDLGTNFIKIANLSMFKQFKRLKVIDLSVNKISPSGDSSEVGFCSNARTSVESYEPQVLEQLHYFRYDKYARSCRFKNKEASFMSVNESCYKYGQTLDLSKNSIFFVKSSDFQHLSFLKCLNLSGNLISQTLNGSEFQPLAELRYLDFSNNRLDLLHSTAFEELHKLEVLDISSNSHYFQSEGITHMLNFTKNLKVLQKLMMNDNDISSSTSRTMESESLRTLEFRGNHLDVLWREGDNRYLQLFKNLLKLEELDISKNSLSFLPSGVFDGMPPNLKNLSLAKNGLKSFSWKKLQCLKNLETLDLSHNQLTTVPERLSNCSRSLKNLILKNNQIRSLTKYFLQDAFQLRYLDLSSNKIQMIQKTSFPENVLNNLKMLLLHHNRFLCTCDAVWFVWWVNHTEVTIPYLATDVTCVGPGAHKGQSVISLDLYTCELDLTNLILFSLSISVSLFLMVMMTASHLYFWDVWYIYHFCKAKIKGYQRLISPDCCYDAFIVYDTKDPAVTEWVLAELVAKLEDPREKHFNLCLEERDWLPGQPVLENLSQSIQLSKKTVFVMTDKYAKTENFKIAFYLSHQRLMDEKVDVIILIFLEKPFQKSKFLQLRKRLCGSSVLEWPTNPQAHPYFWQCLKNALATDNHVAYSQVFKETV
Type: cell-based
Description: The ability of compounds to activate TLR7 in vitro was assessed using the human TLR7 assay described below.
Recombinant human TLR7 was stably expressed in a HEK293 cell line already stably expressing the pNiFty2-SEAP reporter plasmid; integration of the reporter gene was maintained by selection with the antibiotic zeocin. The most common variant sequence of human TLR7 (represented by the EMBL sequence AF240467) was cloned into the mammalian cell expression vector pUNO and transfected into this reporter cell-line. Transfectants with stable expression were selected using the antibiotic blasticidin. In this reporter cell-line, expression of secreted alkaline phosphatase (SEAP) is controlled by an NFkB/ELAM-1 composite promoter comprising five NFkB sites combined with the proximal ELAM-1 promoter. TLR signaling leads to the translocation of NFkB and activation of the promoter results in expression of the SEAP gene. TLR7-specific activation was assessed by determining the level of SEAP produced following overnight incubation of the cells at 37° C. with the standard compound in the presence of 0.1% (v/v) dimethylsulfoxide (DMSO). Concentration dependent induction of SEAP production by compounds was expressed as the concentration of compound which produced half of the maximal level of SEAP induction for that compound (EC50).

Molecule	EC50 [nM]	pEC50
COC(=O)Cc1cccc([C@@H](CCO)Nc2nc(N)nc(C)c2Cc2ccc(OCCCN(C)C)cc2)c1 [Example 34, (R)-Methyl 2-(3-(1-(2-amino-5-(4-(3-(dimethylamino)propoxy)benzyl)-6-methylpyrimidin-4-ylamino)-3-hydroxypropyl)phenyl)acetate]	2000	–
CCC[C@@H](CO)Nc1nc(N)nc(C)c1Cc1ccc(C(=O)OC)cc1OC [Example 13, (S)-Methyl 4-((2-amino-4-(1-hydroxypentan-2-ylamino)-6-methyl-pyrimidin-5-yl)methyl)-3-methoxybenzoate]	100	–
CCCCCNc1nc(N)nc(C)c1Cc1ccc(OCCN2CCCCC2)cc1 [Example 5, 6-Methyl-N^4-pentyl-5-(4-(2-(piperidin-1-yl)ethoxy)benzyl)pyrimidine-2,4-diamine]	126	–
5-(4-(2-(Dimethylamino)ethoxy)benzyl)-6-methyl-N-pentylpyrimidine-2,4-diamine [Example 3]	–	7.2
CCC[C@@H](CO)Nc1nc(N)nc(C)c1Cc1ccc(CO)cc1OC [Example 40, (S)-2-(2-Amino-5-(4-(hydroxymethyl)-2-methoxybenzyl)-6-methyl-pyrimidin-4-ylamino)pentan-1-ol]	20	–
CCCCCNc1nc(N)nc(C)c1Cc1ccc(OCCCN2CCCC2)cc1 [Example 9, 6-Methyl-N^4-pentyl-5-(4-(3-(pyrrolidin-1-yl)propoxy)benzyl)pyrimidine-2,4-diamine]	63.1	–
CCCCCNc1nc(N)nc(C)c1Cc1ccccc1OCCCN(C)C [Example 22]	1260	–
CCCCCNc1nc(N)nc(C)c1Cc1cccc(OCCN2CCCC2)c1 [Example 28, 6-Methyl-N^4-pentyl-5-(3-(2-(pyrrolidin-1-yl)ethoxy)benzyl)pyrimidine-2,4-diamine]	1260	–
CCCCCNc1nc(N)nc(C)c1Cc1ccc(OCCCN2CCOCC2)cc1OC [Example 37, 5-(2-Methoxy-4-(3-morpholinopropoxy)benzyl)-6-methyl-N^4-pentylpyrimidine-2,4-diamine]	7.94	–
CCCCCNc1nc(N)nc(C)c1Cc1ccc(O)cc1 [Example 2, 4-(2-Amino-4-methyl-6-pentylamino-pyrimidin-5-ylmethyl)-phenol]	1260	–
CCCCCNc1nc(N)nc(C)c1Cc1ccccc1OC [Example 19, 5-(2-Methoxybenzyl)-6-methyl-N4-pentylpyrimidine-2,4-diamine]	63.1	–
CCCCCNc1nc(N)nc(C)c1Cc1cccc(OC)c1 [Example 23, 5-(3-Methoxybenzyl)-6-methyl-N4-pentylpyrimidine-2,4-diamine]	2510	–
CCCCCNc1nc(N)nc(C)c1Cc1ccc(C(=O)OC)cc1F [Example 18, Methyl 4-((2-amino-4-methyl-6-(pentylamino)pyrimidin-5-yl)methyl)-3-fluorobenzoate]	2000	–
CCCCCNc1nc(N)nc(C)c1Cc1ccc(OCCCN(C)C)cc1C [Example 33, 5-(4-(3-(Dimethylamino)propoxy)-2-methylbenzyl)-6-methyl-N^4-pentylpyrimidine-2,4-diamine]	251	–
CCCCCNc1nc(N)nc(C)c1Cc1cccc(CN(C)C)c1 [Example 29, 5-(3-((Dimethylamino)methyl)benzyl)-6-methyl-N^4-pentylpyrimidine-2,4-diamine]	316	–
CCCCCNc1nc(N)nc(C)c1Cc1ccc(OC)cc1 [Example 1, 5-(4-Methoxybenzyl)-6-methyl-N^4-pentylpyrimidine-2,4-diamine]	2000	–
CCCCCNc1nc(N)nc(C)c1Cc1cccc(OCCCN(C)C)c1 [Example 25]	794	–

Molecule	EC50 [nM]	pEC50
CCCCCNc1nc(N)nc(C)c1Cc1ccccc1O [Example 20, 2-((2-Amino-4-methyl-6-(pentylamino)pyrimidin-5-yl)methyl)phenol]	126	–
CCCCCNc1nc(N)nc(C)c1Cc1cc(C(=O)OC)ccc1OC [Example 16, Methyl 3-((2-amino-4-methyl-6-(pentylamino)pyrimidin-5-yl)methyl)-4-methoxybenzoate]	50.1	–
CCCCCNc1nc(N)nc(C)c1Cc1ccc(CCCCN(C)C)cc1OC [Example 39, 5-(4-(4-(Dimethylamino)butyl)-2-methoxybenzyl)-6-methyl-N^4-pentylpyrimidine-2,4-diamine]	3.98	–
CCCCCNc1nc(N)nc(C)c1Cc1cccc(OCCN(C)C)c1 [Example 27, 5-(3-(2-(Dimethylamino)ethoxy)benzyl)-6-methyl-N^4-pentylpyrimidine-2,4-diamine]	398	–
CCCCCNc1nc(N)nc(C)c1Cc1cccc(OCCN2CCCCC2)c1 [Example 26, 6-Methyl-N^4-pentyl-5-(3-(2-(piperidin-1-yl)ethoxy)benzyl)pyrimidine-2,4-diamine]	631	–
CCCCCNc1nc(N)nc(C)c1Cc1ccc(C#CCN(C)C)cc1 [Example 30, 5-(4-(3-(Dimethylamino)prop-1-ynyl)benzyl)-6-methyl-N4-pentyl-pyrimidine-2,4-diamine]	100	–
CCCCCNc1nc(N)nc(C)c1Cc1ccccc1OCC [Example 21, 5-(2-Ethoxybenzyl)-6-methyl-N^4-pentylpyrimidine-2,4-diamine]	316	–
CCCCCNc1nc(N)nc(C)c1Cc1ccc(OCCCO)cc1OC [Example 36, 3-(4-((2-Amino-4-methyl-6-(pentylamino)pyrimidin-5-yl)methyl)-3-methoxyphenoxy)propan-1-ol]	50.1	–
CCCCCNc1nc(N)nc(C)c1Cc1ccc(OCCCN2CCN(C)CC2)cc1 [Example 10, 6-Methyl-5-(4-(3-(4-methylpiperazin-1-yl)propoxy)benzyl)-V-pentylpyrimidine-2,4-diamine]	79.4	–
CCCC[C@@H](CCO)Nc1nc(N)nc(C)c1Cc1ccc(C(=O)OC)cc1OC [Example 14, (S)-Methyl 4-((2-amino-4-(1-hydroxyheptan-3-ylamino)-6-methyl-pyrimidin-5-yl)methyl)-3-methoxybenzoate]	10	–
CCCCCNc1nc(N)nc(C)c1Cc1ccc(CCCN(C)C)cc1 [Example 31, 5-(4-(3-(Dimethylamino)propyl)benzyl)-6-methyl-N^4-pentylpyrimidine-2,4-diamine]	100	–
CCCCCNc1nc(N)nc(C)c1Cc1ccc(OCCCN(C)C)cc1OC [Example 11, 5-(4-(3-(Dimethylamino)propoxy)-2-methoxybenzyl)-6-methyl-N^4-pentylpyrimidine-2,4-diamine]	2.51	–
CCCCCNc1nc(N)nc(C)c1Cc1ccc(C(=O)OC)cc1OC [Example 12, Methyl 4-((2-amino-4-methyl-6-(pentylamino)pyrimidin-5-yl)methyl)-3-methoxybenzoate]	63.1	–
CCCCCNc1nc(N)nc(C)c1Cc1cccc(CCCN(C)C)c1 [Example 32, 5-(3-(3-(Dimethylamino)propyl)benzyl)-6-methyl-N^4-pentylpyrimidine-2,4-diamine]	251	–
CCCCCNc1nc(N)nc(C)c1Cc1ccc(OCCN2CCCC2)cc1 [Example 6, 6-Methyl-N^4-pentyl-5-(4-(2-(pyrrolidin-1-yl)ethoxy)benzyl)pyrimidine-2,4-diamine]	100	–
COC(=O)Cc1cccc([C@@H](CCO)Nc2nc(N)nc(C)c2Cc2ccc(OCCCN(C)C)cc2OC)c1 [Example 35, (R)-Methyl 2-(3-(1-(2-amino-5-(4-(3-(dimethylamino)propoxy)-2-methoxybenzyl)-6-methylpyrimidin-4-ylamino)-3-hydroxypropyl)phenyl)acetate]	316	–
CCCCCNc1nc(N)nc(C)c1Cc1cc(C(=O)OC)ccc1F [Example 17, Methyl 3-((2-amino-4-methyl-6-(pentylamino)pyrimidin-5-yl)methyl)-4-fluorobenzoate]	3160	–
